# Assay results: patent US20190381014A1, “ISOQUINOLINONE COMPOUNDS AND USE THEREOF IN PREPARATION OF ANTIVIRAL DRUGS” (Ginkgo Pharma Co., Ltd., priority 2016, published 2019)
# pEC50: −log10 of the molar value. Read-outs that look alike come from different tables or passages of the source.
# Legend:
# HBsAg = HBsAg inhibition in HepG2.2.15 culture supernatant (ELISA); format: cell-based, HBV; settings: read-out: Activity in HBsAg inhibition, EC50
# Method: Test method: HepG2.2.15 cell line was seeded into 96-well plates at 1.5×10^4 cells/well. On the following day, the cells were treated with a three-fold serial dilution series of the compounds at eight concentration points, and 2 duplicate wells were determined in parallel. The final DMSO concentration in the culture solution was 0.5%. On the fifth day, the culture solution was replaced with fresh solution containing the compounds. On the eighth day, the culture supernatant was collected and the HBsAg in the culture supernatant was detected by ELISA. The percent inhibition was calculated with respect to the blank control.
# [1] = Rat PK study (single IV and PO dose, plasma LC-MS/MS); format: in vivo, S-D rats; settings: for F / AUC(0-t) / clearance / half-life / Vd / Cmax / Tmax: S-D rats; for F: PO 10 mg/kg vs IV 2 mg/kg; for AUC(0-t) / clearance / half-life / Vd / Cmax / Tmax: Sprague-Dawley (S-D), rat, plasma; for Vd: read-out: Vdss; for PK properties (overall judgement): combining PK data of IV and PO
# Method: Preparation of intravenous injection formulation: accurately weighing 2-3 mg of a sample, adding appropriate amount of N,N-dimethylacetamide (DMA), vortex oscillating to completely dissolve the solid matter; adding an appropriate volume of 30% Solutol HS-15 aqueous solution, vortex oscillating and then adding saline, so that DMA: 30% Solutol HS-15:saline=20:20:60 (v/v/v), vortex oscillating the liquid to mix the liquid evenly, and filtering to obtain a pharmaceutical preparation of a concentration of 0.4 mg·mL^−1.
# Preparation of oral formulation: accurately weighing 10 mg of a sample, adding an appropriate volume of 0.5% CMC-Na aqueous solution, vortex oscillating and ultrasounding to mix the liquid evenly to obtain a pharmaceutical preparation of a concentration of 1 mg·mL^−1.
# The formulations were freshly prepared on the day of administration, and samples were reserved and taken for the determination of the actual concentration.
# S-D rats of Group A were given a single intravenous injection (IV) of 2 mg·kg^−1, respectively; S-D rats of Group B were given a single gavage administration (PO) of 10 mg·kg^−1, respectively. Approximately 0.15 mL of blood sample will was collected via jugular vein into EDTA-K2 tubes at the designated time points of pre-dose, and 5 min (IV only), 15 min, 30 min, 1 h, 2 h, 4 h, 8 h, 12 h and 24 h post dose. All of the whole blood samples were centrifuged for 10 min (at 5500 rpm) to obtain plasma samples, which were stored at a refrigerator below −30˜−10° C. Concentrations of compounds in the plasma samples were analyzed using a LC-MS/MS method. The pharmacokinetic parameters were calculated using non-compartment model in Pharsight Phoenix 7.0 software. See Tables 2a and 2b for the results.
# [2] = Hepatitis B virus, HepG2.2.15, 192 h
# [3] = HepG2.2.15 cells, supernatant on day 8, ELISA
smiles,measurement,setting,value
"CC(C)C1Cc2cc(O[C@@H]3CCOC3)c(Cl)cc2-c2cc(=O)c(C(=O)O)cn21 (mixture of isomers) [Compound I-22-rac, 10-chloro-6-isopropyl-2-oxo-9-(((R)-tetrahydrofuran-3-yl)oxy)-6,7-dihydro-2H-pyrido [2,1-α]isoquinoline-3-carboxylic acid]",pEC50,HBsAg; [2],8.26
"CO[C@H]1C[C@H](Oc2cc3c(cc2Cl)-c2cc(=O)c(C(=O)O)cn2C(C(C)C)C3)C1 (mixture of isomers) [Compound I-23-rac, 10-chloro-6-isopropyl-9-((1R,3R)-3-methoxycyclobutoxy)-2-oxo-6,7-dihydro-2H-pyrido [2,1-α]isoquinoline-3-carboxylic acid]",pEC50,HBsAg; [2],8.17
"COCC1(COc2cc3c(cc2Cl)-c2cc(=O)c(C(=O)O)cn2C(C(C)C)C3)CC1 (racemic) [Compound I-24-rac, 10-chloro-6-isopropyl-9-((1-(methoxymethyl)cyclopropyl)methoxy)-2-oxo-6,7-dihydro-2H-pyrido[2,1-α]isoquinoline-3-carboxylic acid]",pEC50,HBsAg; [3],8.24
"COCC1(COc2cc3c(cc2Cl)-c2cc(=O)c(C(=O)O)cn2C(C(C)C)C3)COC1 (racemic) [Compound I-25-rac, 10-chloro-6-isopropyl-9-((3-(methoxymethyl)oxetan-3-yl)methoxy)-2-oxo-6,7-dihydro-2H-pyrido[2,1-α]isoquinoline-3-carboxylic acid]",pEC50,HBsAg; [2],8.16
"COC1CC(COc2cc3c(cc2Cl)-c2cc(=O)c(C(=O)O)cn2C(C(C)C)C3)C1 (racemic) [Compound I-26-rac, 10-chloro-6-isopropyl-9-((3-methoxycyclobutyl)methoxy)-2-oxo-6,7-dihydro-2H-pyrido[2,1-α]isoquinoline-3-carboxylic acid]",pEC50,HBsAg; [2],8.12
"COc1cc2c(cc1O[C@@H]1CCOC1)CC(C(C)(C)C)n1cc(C(=O)O)c(=O)cc1-2 (mixture of isomers) [Compound I-28-rac, 6-(tert-butyl)-10-methoxy-2-oxo-9-(((R)-tetrahydrofuran-3-yl)oxy)-6,7-dihydro-2H-pyrido[2,1-α]isoquinoline-3-carboxylic acid]",pEC50,HBsAg; [3],8.24
"COc1cc2c(cc1O[C@H]1C[C@H](OC)C1)CC(C(C)(C)C)n1cc(C(=O)O)c(=O)cc1-2 (mixture of isomers) [Compound I-29-rac, 6-(tert-butyl)-10-methoxy-9-((1R,3R)-3-methoxycyclobutoxy)-2-oxo-6,7-dihydro-2H-pyrido[2,1-α]isoquinoline-3-carboxylic acid]",pEC50,HBsAg; [2],8.19
"COCC1(COc2cc3c(cc2OC)-c2cc(=O)c(C(=O)O)cn2C(C(C)(C)C)C3)CC1 (racemic) [Compound I-30-rac, 6-(tert-butyl)-10-methoxy-9-((1-(methoxymethyl)cyclopropyl)methoxy)-2-oxo-6,7-dihydro-2H-pyrido[2,1-α]isoquinoline-3-carboxylic acid]",pEC50,HBsAg; [3],8.17
"COCC1(COc2cc3c(cc2OC)-c2cc(=O)c(C(=O)O)cn2C(C(C)(C)C)C3)COC1 (racemic) [Compound I-31-rac, 6-(tert-butyl)-10-methoxy-9-((3-(methoxymethyl)oxetan-3-yl)methoxy)-2-oxo-6,7-dihydro-2H-pyrido[2,1-α]isoquinoline-3-carboxylic acid]",pEC50,HBsAg; [2],8.22
"COc1cc2c(cc1OCC1CC(OC)C1)CC(C(C)(C)C)n1cc(C(=O)O)c(=O)cc1-2 (racemic) [Compound I-32-rac, 6-(tert-butyl)-10-methoxy-9-((3-methoxycyclobutyl)methoxy)-2-oxo-6,7-dihydro-2H-pyrido[2,1-α]isoquinoline-3-carboxylic acid]",pEC50,HBsAg; [2],8.14
"COCC(C)(C)C1Cc2cc(O[C@@H]3CCOC3)c(OC)cc2-c2cc(=O)c(C(=O)O)cn21 (mixture of isomers) [Compound I-52-rac, 10-methoxy-6-(1-methoxy-2-methylpropan-2-yl)-2-oxo-9-(((R)-tetrahydrofuran-3-yl)oxy)-6,7-dihydro-2H-pyrido[2,1-α]isoquinoline-3-carboxylic acid]",pEC50,HBsAg; [2],8.12
"COCC(C)(C)C1Cc2cc(O[C@H]3C[C@H](OC)C3)c(OC)cc2-c2cc(=O)c(C(=O)O)cn21 (mixture of isomers) [Compound I-53-rac, 10-methoxy-6-(1-methoxy-2-methylpropan-2-yl)-9-((1R,3R)-3-methoxycyclobutoxy)-2-oxo-6,7-dihydro-2H-pyrido[2,1-α]isoquinoline-3-carboxylic acid]",pEC50,HBsAg; [2],8.18
"COCC1(COc2cc3c(cc2OC)-c2cc(=O)c(C(=O)O)cn2C(C(C)(C)COC)C3)CC1 (racemic) [Compound I-54-rac, 10-methoxy-6-(1-methoxy-2-methylpropan-2-yl)-9-((1-(methoxymethyl)cyclopropyl)methoxy)-2-oxo-6,7-dihydro-2H-pyrido[2,1-α]isoquinoline-3-carboxylic acid]",pEC50,HBsAg; [2],8.27
"COCC1(COc2cc3c(cc2OC)-c2cc(=O)c(C(=O)O)cn2C(C(C)(C)COC)C3)COC1 (racemic) [Compound I-55-rac, 10-methoxy-6-(1-methoxy-2-methylpropan-2-yl)-9-((3-(methoxymethyl)oxetan-3-yl)methoxy)-2-oxo-6,7-dihydro-2H-pyrido[2,1-α]isoquinoline-3-carboxylic acid]",pEC50,HBsAg; [2],8.14
"COCC(C)(C)C1Cc2cc(OCC3CC(OC)C3)c(OC)cc2-c2cc(=O)c(C(=O)O)cn21 (racemic) [Compound I-56-rac, 10-methoxy-6-(1-methoxy-2-methylpropan-2-yl)-9-((3-methoxycyclobutyl)methoxy)-2-oxo-6,7-dihydro-2H-pyrido[2,1-α]isoquinoline-3-carboxylic acid]",pEC50,HBsAg; [2],8.23
"COCCCOc1cc2c(cc1OC)-c1cc(=O)c(C(=O)O)cn1[C@H](C(C)C)C2 [A, reference compound]",pEC50,HBsAg; [2],8.39
same,F,[1],21.5%
same,AUC(0-t),[1]; IV 2 mg/kg,1610 ng·h/mL
same,clearance,[1]; IV 2 mg/kg,20.8 mL/min/kg
same,half-life,[1]; IV 2 mg/kg,0.94 h
same,Vd,[1]; IV 2 mg/kg,1.17 L/kg
same,AUC(0-t),[1]; PO 10 mg/kg,1760 ng·h/mL
same,Cmax,[1]; PO 10 mg/kg,475 ng/mL
same,Tmax,[1]; PO 10 mg/kg,2.2 h
same,half-life,[1]; PO 10 mg/kg,1.5 h
"COc1cc2c(cc1O[C@@H]1CCOC1)C[C@@H](C(C)C)n1cc(C(=O)O)c(=O)cc1-2 [Compound I-2, (S)-6-isopropyl-10-methoxy-2-oxo-9-(((R)-tetrahydrofuran-3-yl)oxy)-6,7-dihydro-2H-pyrido[2,1-α]isoquinoline-3-carboxylic acid]",pEC50,HBsAg; [2],8.74
same,F,[1],18.9%
same,AUC(0-t),[1]; IV 2 mg/kg,1800 ng·h/mL
same,clearance,[1]; IV 2 mg/kg,18.6 mL/min/kg
same,half-life,[1]; IV 2 mg/kg,1.8 h
same,Vd,[1]; IV 2 mg/kg,1.51 L/kg
same,AUC(0-t),[1]; PO 10 mg/kg,1690 ng·h/mL
same,Cmax,[1]; PO 10 mg/kg,437 ng/mL
same,Tmax,[1]; PO 10 mg/kg,1.2 h
same,half-life,[1]; PO 10 mg/kg,1.6 h
same,PK properties (overall judgement),[1],good PK properties
"COc1cc2c(cc1O[C@H]1C[C@H](OC)C1)C[C@@H](C(C)C)n1cc(C(=O)O)c(=O)cc1-2 [Compound I-5, (S)-6-isopropyl-10-methoxy-9-((1R,3S)-3-methoxycyclobutoxy)-2-oxo-6,7-dihydro-2H-pyrido[2,1-α]isoquinoline-3-carboxylic acid]",pEC50,HBsAg; [2],8.79
same,F,[1],37.7%
same,AUC(0-t),[1]; IV 2 mg/kg,2940 ng·h/mL
same,clearance,[1]; IV 2 mg/kg,11.3 mL/min/kg
same,half-life,[1]; IV 2 mg/kg,0.98 h
same,Vd,[1]; IV 2 mg/kg,0.858 L/kg
same,AUC(0-t),[1]; PO 10 mg/kg,5500 ng·h/mL
same,Cmax,[1]; PO 10 mg/kg,1340 ng/mL
same,Tmax,[1]; PO 10 mg/kg,0.5 h
same,half-life,[1]; PO 10 mg/kg,1.7 h
same,PK properties (overall judgement),[1],good PK properties
"COCCC#Cc1cc2c(cc1OC)-c1cc(=O)c(C(=O)O)cn1[C@H](C(C)C)C2 [Compound I-12, (S)-6-isopropyl-10-methoxy-9-(4-methoxybut-1-yn-1-yl)-2-oxo-6,7-dihydro-2H-pyrido [2,1-α]isoquinoline-3-carboxylic acid]",pEC50,HBsAg; [2],8.42
"COc1cc2c(cc1O[C@H]1C[C@@H](OC)C1)C[C@@H](C(C)C)n1cc(C(=O)O)c(=O)cc1-2 [Compound I-19, (S)-6-isopropyl-10-methoxy-9-((1 s, 3R)-3-methoxycyclobutoxy)-2-oxo-6,7-dihydro-2H-pyrido[2,1-α]isoquinoline-3-carboxylic acid]",pEC50,HBsAg; [2],8.54
"COc1cc2c(cc1OC1CCC1)C[C@@H](C(C)C)n1cc(C(=O)O)c(=O)cc1-2 [Compound I-20, (S)-9-cyclobutoxy-6-isopropyl-10-methoxy-2-oxo-6,7-dihydro-2H-pyrido[2,1-α]isoquinoline-3-carboxylic acid]",pEC50,HBsAg; [2],8.59
